The numbers were not newly measured in patent US10595479B2, “Induced mutagenesis” (Purdue Research Foundation, priority 2014, dated 2020), which cites them from elsewhere.

The test system of the data set is maize. The conditions noted are these: pollen EMS protocol in maize, tested molecularly.

Regarding `CCOS(C)(=O)=O` [EMS, ethyl methanesulfonate], the density of mutations entry was “about 2 mutations per Mb of DNA”.
